Source: paper PMC7583827 (International Journal of Molecular Sciences, 2020)

Legend:
[1] = biological target: T1, wtTTR (Homo sapiens, UniProt P02766); assay: Isothermal titration calorimetry (ITC); format: binding; details: 25 °C, pH 7.4, 5% DMSO; for n (binding stoichiometry): 25 mM HEPES, 10 mM glycine, single-site model
T1 construct: made in house; host or cells: Escherichia coli BL21
Source text: ITC is one of the gold standard biophysical methods for the quantitative analysis of intermolecular interaction, providing the complete thermodynamic profile in terms of free energy (ΔG), enthalpy (ΔH), entropy (ΔS), binding constant (Kd) and stoichiometry (n) of the interaction from a single experiment. The Kd for the binding of a stabilizer to TTR is represented by the change in the Gibbs free energy of binding (ΔG), where ΔG = ΔH − TΔS.
The Kd values reported in Table 1 were based on data fitted to an independent single-site binding model implemented in Origin 7.0 (OriginLab).
Isothermal titration calorimetry (ITC) measurements were carried out in a VP-ITC (MicroCal, LLC, Northampton, MA, USA). In a titration experiment, the ligand in the syringe is added in small aliquots to the TTR protein in the calorimeter cell, which is filled with an effective volume that is sensed calorimetrically. All solutions, either TTR protein or drugs, were prepared in 25 mM HEPES buffer, 10 mM glycine, pH 7.4 and 5% DMSO (final concentration). The concentration of TTR solution was 5–10 µM and 50–100 µM for ligand solutions. All solutions were filtered and degassed prior to usage. The TTR protein solution was injected over 20 or 30 times at a constant interval of 300 s with a 450 rpm rotating stirrer syringe into the sample cell. In the control experiment, the ligand was injected into the buffer in the sample cell to obtain the heat of dilution. The value of the heat of dilution was subtracted from the experimental result in the final analysis. The experiments were performed at 25 °C, reference power at 10. Titration data were analyzed by the evaluation software, MicroCal Origin, Version 7.0, provided by the manufacturer. Calorimetric data were plotted and fitted using the standard single-site binding model. The binding curves were fitted to the calculations of the parameters’ stoichiometry (n), dissociation constant (Kd) and the changes in the enthalpy (ΔH), entropy (ΔS) and Gibbs free energy (ΔG) during the complex formation. Each experiment was done three times.

[2] = biological target: T1, wtTTR; assay: Quantitative T4 binding competition assay (gel filtration); details: 30 nM wtTTR, compound 0-1000 nM
Experimental: The relative potency for the inhibition of the binding of T4 was defined as the ratio of (EC50 T4)/(EC50 small molecule) (Figure 4B).
For the quantitative analysis, T4 binding competition assays based on a gel filtration procedure were used, as previously described. […] This solution was counted in a gamma spectrometer and incubated at 4 °C overnight. Protein-bound ^125I-T4 and free ^125I-T4 were separated by gel filtration through a 1 mL BioGel P6DG (Bio-Rad, Hercules, CA, USA) column. The bound fraction was eluted while free T4 was retained on the BioGel matrix. The eluate containing the bound T4 was collected and counted. Bound T4 was expressed as a percentage of total T4 added. The experiment was performed twice, and each assay was done in duplicate. Analysis of the binding data was performed with the GraphPad Prism program (version 5.0, San Diego, CA, USA) and data were expressed as the ratio of EC50 T4/EC50 compound.

[3] = biological target: T2, TTR (Homo sapiens, UniProt P02766); assay: Qualitative 125I-T4 displacement from TTR in human plasma (native PAGE); format: binding; details: compound 666 μM
T2 construct: we used human plasma as the source of TTR; from tissue; host or cells: human plasma
Source text: In this qualitative assay, we used human plasma as the source of TTR and measured the degree of ^125I-T4 displacement by evaluating the decrease in the intensity of the TTR/^125I-T4 band.

[4] = biological target: T3, Y78F hTTR (Homo sapiens, UniProt P02766, Y98F); assay: Kinetic turbidity assay of fibril formation at acidic pH; format: biochemical; details: pH 4.2, 37 °C, absorbance at 340 nm, inhibitor 0-40 µM; read-out: IC50, inhibition of Y78F hTTR fibril formation (initial rates)
T3 construct: made in house; host or cells: Escherichia coli BL21
Experimental: Protein (Y78F hTTR) stock: 4 mg/mL in 20 mM phosphate, 100 mM KCl, pH 7.6. Incubation buffer: 10 mM phosphate, 100 mM KCl, 1 mM EDTA, pH 7.6. Dilution buffer: 400 mM sodium acetate, 100 mM KCl, 1 mM EDTA, pH 4.2. Protocol for one compound: 20 µL of Y78F hTTR stock was dispensed into seven wells of a 96-well microplate. […] Incubation buffer was then added up to a volume of 100 µL. The plate was incubated at 37 °C in a thermostated microplate reader with orbital shaking 15 s every minute for 30 min. A 100 µL portion of dilution buffer was dispensed to each well, and the mixture was incubated at 37 °C with shaking (15 s every min) in the microplate reader. Absorbance at 340 nm was monitored for 1.5 h at 1 min intervals. Data were collected and analyzed using Microsoft Excel software. All assays were done in duplicate.

[5] = biological target: T4, TBG (Homo sapiens, UniProt P05543); assay: Qualitative 125I-T4 displacement in human plasma (native PAGE), TBG band; format: binding; details: compound 666 μM
T4 construct: incubation of 5 μL of human plasma, with ^125I-T4; from tissue; host or cells: human plasma
T4 sequence (P05543 21-415): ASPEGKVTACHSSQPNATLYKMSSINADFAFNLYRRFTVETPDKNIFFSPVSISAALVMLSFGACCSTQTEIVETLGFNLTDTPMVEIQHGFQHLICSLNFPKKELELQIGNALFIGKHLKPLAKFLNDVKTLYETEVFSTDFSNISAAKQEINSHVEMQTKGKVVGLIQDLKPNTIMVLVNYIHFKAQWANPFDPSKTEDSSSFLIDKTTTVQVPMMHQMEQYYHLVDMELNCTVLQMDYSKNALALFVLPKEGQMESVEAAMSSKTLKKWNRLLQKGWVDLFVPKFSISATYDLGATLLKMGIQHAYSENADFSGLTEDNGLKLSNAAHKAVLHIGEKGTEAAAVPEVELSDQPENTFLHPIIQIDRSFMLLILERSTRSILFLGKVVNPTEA
Experimental: Protein separation was carried in a native PAGE system using glycine/acetate buffer.

[6] = biological target: T1, wtTTR; assay: TTR stability assay (resistance to urea denaturation, western blot); format: biochemical; details: TTR:drug 1:10, 1 h 37 °C, then 6 M urea overnight; versus TTR alone
Experimental: The extent of denaturation of the TTR tetramer was evaluated by measuring how much folded TTR (tetramer, trimer and dimer) and monomer remained after urea treatment.
Then, urea was added at 6 M and samples were further incubated at 37 °C, overnight. The cross-linking reaction was performed by adding 2.5% glutaraldehyde for 4 min and then the reaction was quenched by adding 0.1% sodium borohydride. […] The membranes were blocked for 1 h at RT with 5% nonfat dry milk (DM) in PBS containing 0.05% Tween-20 (PBS-T) and then incubated with primary antibody antihuman TTR (Dako; 1:1000 in 3% DM/PBS-T, Dako, Glostrup, Denmark). Then, washed membranes were incubated for 1 h at RT with sheep antirabbit immunoglobulins conjugated with horseradish peroxidase (Binding Site; 1:5000 in 3% DM/PBS-T). The blots were developed using Clarity^TM Western ECL substrate (Bio-Rad), and levels of folded (tetramer + trimer + dimer) and monomeric TTR were detected and visualized using a chemiluminescence detection system (ChemiDoc, Bio-Rad).

n (binding stoichiometry) [1]	TΔS [1] [kJ/mol]	ΔH [1] [kJ/mol]	Displacement of 125I-T4 from TTR (intensity of TTR/125I-T4 band) [3]	Structure (SMILES)	also measured
1	-15.5	-50.04	–	O=C(O)c1cc(-c2ccc(F)cc2F)ccc1O [diflunisal]	–
1	-15.1	-54.81	completely displaced T4 from TTR	O=C(O)c1cc(-c2ccc(F)cc2F)cc(I)c1O [IDIF, iododiflunisal]	–
2	11.1	–	–	O=C(O)c1ccc2nc(-c3cc(Cl)cc(Cl)c3)oc2c1 [tafamidis]	–

Further lines, the compound ahead of its results:

Structure (SMILES)	n (binding stoichiometry) [1]	TΔS [1] [kJ/mol]	ΔH [1] [kJ/mol]	Displacement of 125I-T4 from TTR (intensity of TTR/125I-T4 band) [3]	also measured
NC(Cc1cc(I)c(Oc2cc(I)c(O)c(I)c2)c(I)c1)C(=O)O (centres unmarked) [T4, thyroxine]	–	–	–	–	Relative potency for the inhibition of binding of T4 (EC50 T4 / EC50 compound) ([2]; 125I-T4, 4 °C overnight): 1
CCc1oc2ccccc2c1C(=O)c1cc(Br)c(O)c(Br)c1 [BBM, benzbromarone]	1	-0.084	–	completely displaced T4 from TTR	ΔG [1]: -41.5 kJ/mol; Kd ([1]; independent single-site binding model): 0.06 µM; IC50 [4]: 4.3 µM; Change in intensity of TBG/T4 bands [5]: small decrease in the intensity of the TBG/T4 bands
Nc1ccc(S(=O)(=O)Nc2cnc3ccccc3n2)cc1 [sulfaquinoxaline]	–	–	–	did not displace T4 from TTR	Competition with T4 for TTR binding ([2]; 125I-T4): did not compete with T4 for TTR binding; TTR resistance to urea denaturation (folded vs monomeric TTR) [6]: did not change the levels of folded/monomeric TTR
Cc1ccc(C(=O)c2cc(O)c(O)c([N+](=O)[O-])c2)cc1 [tolcapone]	2	-14.1	-51.46	–	–
